Results taken from PubChem BioAssay AID2060603 (Molecular Pharmacology Branch, DTP, NCI, 2025).
Values joined by “and” are separate entries in the source; they are usually repeats but may differ in a detail not shown here. Identical values can stand only once.

System: 422866-222-R5-J1-PDC spheroid viability
Assay: Anticancer human tumor 422866-222-R5-J1-PDC patient-derived pancreatic adenocarcinoma cell line growth inhibition [CLK]
Settings: spheroids with HUVEC and MSC; for viability, T/C: stronger effect = lower value
Procedure, shortened: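 Patient-derived tumor cells grown as complex spheroids with HUVEC endothelial cells and mesenchymal stem cells, treated with drug combinations. Concentrations descend in half-log steps from near clinical Cmax, or from 10 microM if Cmax unknown.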

[1] = curve of first compound, second compound 0.0316 µM
[2] = curve of first compound, second compound 0.1 µM
[3] = curve of first compound, second compound 0.316 µM
[4] = curve of first compound, second compound 1 µM
[5] = curve of first compound, second compound 3.16 µM
[6] = curve of first compound, second compound 10 µM
[7] = second compound 0.0316 µM, first compound 0.0316 µM
[8] = second compound 0.0316 µM, first compound 0.1 µM
[9] = second compound 0.0316 µM, first compound 0.316 µM
[10] = second compound 0.0316 µM, first compound 1 µM
[11] = second compound 0.0316 µM, first compound 3.16 µM
[12] = second compound 0.0316 µM, first compound 10 µM
[13] = second compound 0.1 µM, first compound 0.0316 µM
[14] = second compound 0.1 µM, first compound 0.1 µM
[15] = second compound 0.1 µM, first compound 0.316 µM
[16] = second compound 0.1 µM, first compound 1 µM
[17] = second compound 0.1 µM, first compound 3.16 µM
[18] = second compound 0.1 µM, first compound 10 µM
[19] = second compound 0.316 µM, first compound 0.0316 µM
[20] = second compound 0.316 µM, first compound 0.1 µM
[21] = second compound 0.316 µM, first compound 0.316 µM
[22] = second compound 0.316 µM, first compound 1 µM
[23] = second compound 0.316 µM, first compound 3.16 µM
[24] = second compound 0.316 µM, first compound 10 µM
[25] = second compound 1 µM, first compound 0.0316 µM
[26] = second compound 1 µM, first compound 0.1 µM
[27] = second compound 1 µM, first compound 0.316 µM
[28] = second compound 1 µM, first compound 1 µM
[29] = second compound 1 µM, first compound 3.16 µM
[30] = second compound 1 µM, first compound 10 µM
[31] = second compound 3.16 µM, first compound 0.0316 µM
[32] = second compound 3.16 µM, first compound 0.1 µM
[33] = second compound 3.16 µM, first compound 0.316 µM
[34] = second compound 3.16 µM, first compound 1 µM
[35] = second compound 3.16 µM, first compound 3.16 µM
[36] = second compound 3.16 µM, first compound 10 µM
[37] = second compound 10 µM, first compound 0.0316 µM
[38] = second compound 10 µM, first compound 0.1 µM
[39] = second compound 10 µM, first compound 0.316 µM
[40] = second compound 10 µM, first compound 1 µM
[41] = second compound 10 µM, first compound 3.16 µM
[42] = second compound 10 µM, first compound 10 µM
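Further: spheroids exposed to agents for seven days before readout.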

CC(=O)O[C@H]1C(=O)[C@@]2(C)[C@H]([C@H](OC(=O)c3ccccc3)[C@]3(O)C[C@H](OC(=O)[C@H](O)[C@@H](NC(=O)c4ccccc4)c4ccccc4)C(C)=C1C3(C)C)[C@]1(OC(C)=O)CO[C@@H]1C[C@@H]2O + CNC(=O)c1ccc(Nc2nc(OC3CCCC3)c3c(-c4ccc5nc(C)oc5c4)c[nH]c3n2)c(OC)c1
IC50 [1]: > 10000 nM | IC50 [2]: > 10000 nM | IC50 [3]: > 10000 nM | IC50 [4]: 31.6 nM | IC50 [5]: > 10000 nM | IC50 [6]: > 10000 nM | viability, T/C [7]: 68.8% | viability, T/C [8]: 61.1% | viability, T/C [9]: 65.3% | viability, T/C [10]: 83.3% | viability, T/C [11]: 102% | viability, T/C [12]: 100% | viability, T/C [13]: 61% | viability, T/C [14]: 67.9% | viability, T/C [15]: 63% | viability, T/C [16]: 74.8% | viability, T/C [17]: 78.5% | viability, T/C [18]: 98.1% | viability, T/C [19]: 59.4% | viability, T/C [20]: 68% | viability, T/C [21]: 62.2% | viability, T/C [22]: 61.4% | viability, T/C [23]: 65.5% | viability, T/C [24]: 78.7% | viability, T/C [25]: 56.5% | viability, T/C [26]: 48.4% | viability, T/C [27]: 52.8% | viability, T/C [28]: 48.5% | viability, T/C [29]: 66.5% | viability, T/C [30]: 73% | viability, T/C [31]: 56.5% | viability, T/C [32]: 60.8% | viability, T/C [33]: 52.3% | viability, T/C [34]: 57.9% | viability, T/C [35]: 70.5% | viability, T/C [36]: 79% | viability, T/C [37]: 48.9% | viability, T/C [38]: 60.1% | viability, T/C [39]: 61.4% | viability, T/C [40]: 53.9% | viability, T/C [41]: 65.4% | viability, T/C [42]: 70.5%

COc1c(OCCCN2CCOCC2)ccc2c3n(c(=NC(=O)c4cnc(N)nc4)nc12)CCN3
viability, T/C (compound 0.00316 µM): 78.6% and 87.6% | viability, T/C (compound 0.01 µM): 57.4% and 58.9% | viability, T/C (compound 0.0316 µM): 37.6% and 32.8% | viability, T/C (compound 0.1 µM): 33.2% and 29.1% | viability, T/C (compound 0.316 µM): 29.7% and 26% | viability, T/C (compound 1 µM): 32.4% and 33.2% | IC50 (curve of compound): 15.4 nM and 14.8 nM

CC(CO)NC(=O)c1cc(-c2ccc(Cl)cc2)nn(-c2cnn(C)c2)c1=O (centres undefined) + CNC(=O)c1ccc(Nc2nc(OC3CCCC3)c3c(-c4ccc5nc(C)oc5c4)c[nH]c3n2)c(OC)c1
IC50 [1]: > 10000 nM | IC50 [2]: > 10000 nM | IC50 [3]: > 10000 nM | IC50 [4]: > 10000 nM | IC50 [5]: > 10000 nM | IC50 [6]: > 10000 nM | viability, T/C [7]: 91% | viability, T/C [8]: 112% | viability, T/C [9]: 112% | viability, T/C [10]: 114% | viability, T/C [11]: 77.2% | viability, T/C [12]: 81.7% | viability, T/C [13]: 113% | viability, T/C [14]: 97.3% | viability, T/C [15]: 109% | viability, T/C [16]: 98.9% | viability, T/C [17]: 74.9% | viability, T/C [18]: 78.1% | viability, T/C [19]: 73.2% | viability, T/C [20]: 73.8% | viability, T/C [21]: 72.6% | viability, T/C [22]: 73.5% | viability, T/C [23]: 72.2% | viability, T/C [24]: 66.8% | viability, T/C [25]: 74.8% | viability, T/C [26]: 64.2% | viability, T/C [27]: 66.2% | viability, T/C [28]: 55.1% | viability, T/C [29]: 57.5% | viability, T/C [30]: 61.8% | viability, T/C [31]: 56.3% | viability, T/C [32]: 60.8% | viability, T/C [33]: 57.2% | viability, T/C [34]: 61.8% | viability, T/C [35]: 51.5% | viability, T/C [36]: 50.2% | viability, T/C [37]: 55.6% | viability, T/C [38]: 63.4% | viability, T/C [39]: 67% | viability, T/C [40]: 60.4% | viability, T/C [41]: 60.9% | viability, T/C [42]: 56.4%

COc1cccc2c1C(=O)c1c(O)c3c(c(O)c1C2=O)CC(O)(C(=O)CO)CC3OC1CC(N)C(O)C(C)O1 (centres undefined)
viability, T/C (compound 0.0316 µM): 57.2% and 67.1% | viability, T/C (compound 0.1 µM): 65.7% and 52.3% | viability, T/C (compound 0.316 µM): 44.2% and 30.3% | viability, T/C (compound 1 µM): 32.1% and 27% | viability, T/C (compound 3.16 µM): 28.3% and 26.7% | viability, T/C (compound 10 µM): 30.9% and 26% | IC50 (curve of compound): 215 nM and 113 nM

CC(CO)NC(=O)c1cc(-c2ccc(Cl)cc2)nn(-c2cnn(C)c2)c1=O (centres undefined) + CN1CCN(c2cc(C(=O)Nc3cc4cc(-c5cnn(C)c5)ccc4cn3)ccn2)CC1
IC50 [1]: > 10000 nM | IC50 [2]: > 10000 nM | IC50 [3]: > 10000 nM | IC50 [4]: < 31.6 nM | IC50 [5]: < 31.6 nM | IC50 [6]: < 31.6 nM | viability, T/C [7]: 115% | viability, T/C [8]: 104% | viability, T/C [9]: 106% | viability, T/C [10]: 135% | viability, T/C [11]: 106% | viability, T/C [12]: 75.7% | viability, T/C [13]: 115% | viability, T/C [14]: 118% | viability, T/C [15]: 104% | viability, T/C [16]: 116% | viability, T/C [17]: 104% | viability, T/C [18]: 82.6% | viability, T/C [19]: 107% | viability, T/C [20]: 93.5% | viability, T/C [21]: 86.9% | viability, T/C [22]: 88.7% | viability, T/C [23]: 80.8% | viability, T/C [24]: 68.8% | viability, T/C [25]: 30.9% | viability, T/C [26]: 27.6% | viability, T/C [27]: 31.6% | viability, T/C [28]: 31.1% | viability, T/C [29]: 31.3% | viability, T/C [30]: 32% | viability, T/C [31]: 13.1% | viability, T/C [32]: 13.4% | viability, T/C [33]: 12.1% | viability, T/C [34]: 12% | viability, T/C [35]: 11.5% | viability, T/C [36]: 13.6% | viability, T/C [37]: 2.51% | viability, T/C [38]: 3.09% | viability, T/C [39]: 1.44% | viability, T/C [40]: 2.25% | viability, T/C [41]: 3.26% | viability, T/C [42]: 1.54%

CC(=O)O[C@H]1C(=O)[C@@]2(C)[C@H]([C@H](OC(=O)c3ccccc3)[C@]3(O)C[C@H](OC(=O)[C@H](O)[C@@H](NC(=O)c4ccccc4)c4ccccc4)C(C)=C1C3(C)C)[C@]1(OC(C)=O)CO[C@@H]1C[C@@H]2O + CN1CCN(c2cc(C(=O)Nc3cc4cc(-c5cnn(C)c5)ccc4cn3)ccn2)CC1
IC50 [1]: > 10000 nM | IC50 [2]: > 10000 nM | IC50 [3]: > 10000 nM | IC50 [4]: < 31.6 nM | IC50 [5]: < 31.6 nM | IC50 [6]: < 31.6 nM | viability, T/C [7]: 72.2% | viability, T/C [8]: 61.6% | viability, T/C [9]: 61.4% | viability, T/C [10]: 69.7% | viability, T/C [11]: 78.1% | viability, T/C [12]: 85.3% | viability, T/C [13]: 70.5% | viability, T/C [14]: 61.9% | viability, T/C [15]: 73.1% | viability, T/C [16]: 81.5% | viability, T/C [17]: 83.8% | viability, T/C [18]: 95.4% | viability, T/C [19]: 68.7% | viability, T/C [20]: 73% | viability, T/C [21]: 72.3% | viability, T/C [22]: 69.7% | viability, T/C [23]: 72.7% | viability, T/C [24]: 85.4% | viability, T/C [25]: 21.8% | viability, T/C [26]: 20.5% | viability, T/C [27]: 18.8% | viability, T/C [28]: 19.6% | viability, T/C [29]: 18.7% | viability, T/C [30]: 16.4% | viability, T/C [31]: 6.64% | viability, T/C [32]: 7.47% | viability, T/C [33]: 8.49% | viability, T/C [34]: 4.12% | viability, T/C [35]: 9.46% | viability, T/C [36]: 8% | viability, T/C [37]: 1.52% | viability, T/C [38]: 1.43% | viability, T/C [39]: 1.2% | viability, T/C [40]: 1.05% | viability, T/C [41]: 0.96% | viability, T/C [42]: 1.27%

Nc1ccn(C2OC(CO)C(O)C2(F)F)c(=O)n1 (centres undefined)
viability, T/C (compound 0.0316 µM): 73.9% and 72.8% | viability, T/C (compound 0.1 µM): 60.1% and 44.8% | viability, T/C (compound 0.316 µM): 44.6% and 38% | viability, T/C (compound 1 µM): 41.9% and 46.5% | viability, T/C (compound 3.16 µM): 41.6% and 39.7% | viability, T/C (compound 10 µM): 36.3% and 40.9% | IC50 (curve of compound): 221 nM and 79.5 nM
